Reference: patent US20140275049A1, “SUBSTITUTED PYRAZOLE ANALOGS As RAR ANTAGONISTS” (Eli Lilly and Company, priority 2011, published 2014)

Test system: MIA model of pain
Test: Monosodium iodoacetate (MIA) model of pain
Assay type: in vivo, rat
Details: rats, dose of 0.1 mg/kg, dosed once on day 9 post MIA, measured 2 h post dosing
Source text: The injection of monoiodoacetic acid (MIA) into the knee joint of rats produces an acute inflammatory insult, which then develops into chronic degeneration of the joint tissues in the injected joint. The pain resulting from the joint injury can be measured via differential weight bearing of the hind legs using an incapacitance tester. […] Efficacy is routinely measured by the ability of a compound to partially normalize weight distribution. The maximal efficacy that can be achieved in the standard MIA is dependent on the mechanism being studied; however, for many mechanisms the maximal efficacy achieved results in a 25%-50% reduction in the weight bearing differential.
Use Male Lewis rats approximately 150-170 g and between 6-8 weeks of age. Let the animals acclimate to the environment for at least 72 h. […]
Incapacitance Tester Readings—Incapacitance Testers (Columbus Instruments International, Columbus, Ohio) for weight bearing measurements. […] A total of three one second readings are taken to reflect the amount of pressure exerted on both the left and right hind paw while the rat is positioned in the chamber. The force exerted by each hind paw is measured in grams and calculated as the left hind paw weight distribution-right hind paw weight distribution. Thus, the final paw weight distribution for each animal is an average of the three one second readings. […]

SMILES: CN1CCN(C(=O)c2ccc(-n3nc(-c4ccc(C(=O)O)cc4)cc3-c3cc(C(C)(C)C)cc(C(C)(C)C)c3)cc2)CC1 [Example 1, 4-[5-(3,5-Di-tert-butylphenyl)-1-[4-(4-methylpiperazine-1-carbonyl)phenyl]pyrazol-3-yl]benzoic Acid]
- inhibition of pain (hind paw weight bearing differential) compared to vehicle: significantly inhibits pain
